# Data published in PMC9000625, “Target Design of Novel Histone Deacetylase 6 Selective Inhibitors with 2-Mercaptoquinazolinone as the Cap Moiety” (Molecules, 2022).
# “And” between values parts separate entries of the source, which are not always exact repeats. Equal entries are not always repeated. Where two headings read alike, the source gives them in different places.
# Columns and labels:
# N2A cells = experiment: Antiproliferation, N2A; type: cell-based; conditions: Mus musculus, Brain
# SKOV3 cells = experiment: Antiproliferation, SKOV3; type: cell-based; conditions: Homo sapiens, SK-OV-3; Ovarian
# HDAC6 = biological target: T1, HDAC6 (Homo sapiens, UniProt Q9UBN7); experiment: HDAC enzyme inhibition assay, HDAC6; type: biochemical
# T1 construct: purchased PBS Biosciences [sic]
# T1 sequence (Q9UBN7 1-1215): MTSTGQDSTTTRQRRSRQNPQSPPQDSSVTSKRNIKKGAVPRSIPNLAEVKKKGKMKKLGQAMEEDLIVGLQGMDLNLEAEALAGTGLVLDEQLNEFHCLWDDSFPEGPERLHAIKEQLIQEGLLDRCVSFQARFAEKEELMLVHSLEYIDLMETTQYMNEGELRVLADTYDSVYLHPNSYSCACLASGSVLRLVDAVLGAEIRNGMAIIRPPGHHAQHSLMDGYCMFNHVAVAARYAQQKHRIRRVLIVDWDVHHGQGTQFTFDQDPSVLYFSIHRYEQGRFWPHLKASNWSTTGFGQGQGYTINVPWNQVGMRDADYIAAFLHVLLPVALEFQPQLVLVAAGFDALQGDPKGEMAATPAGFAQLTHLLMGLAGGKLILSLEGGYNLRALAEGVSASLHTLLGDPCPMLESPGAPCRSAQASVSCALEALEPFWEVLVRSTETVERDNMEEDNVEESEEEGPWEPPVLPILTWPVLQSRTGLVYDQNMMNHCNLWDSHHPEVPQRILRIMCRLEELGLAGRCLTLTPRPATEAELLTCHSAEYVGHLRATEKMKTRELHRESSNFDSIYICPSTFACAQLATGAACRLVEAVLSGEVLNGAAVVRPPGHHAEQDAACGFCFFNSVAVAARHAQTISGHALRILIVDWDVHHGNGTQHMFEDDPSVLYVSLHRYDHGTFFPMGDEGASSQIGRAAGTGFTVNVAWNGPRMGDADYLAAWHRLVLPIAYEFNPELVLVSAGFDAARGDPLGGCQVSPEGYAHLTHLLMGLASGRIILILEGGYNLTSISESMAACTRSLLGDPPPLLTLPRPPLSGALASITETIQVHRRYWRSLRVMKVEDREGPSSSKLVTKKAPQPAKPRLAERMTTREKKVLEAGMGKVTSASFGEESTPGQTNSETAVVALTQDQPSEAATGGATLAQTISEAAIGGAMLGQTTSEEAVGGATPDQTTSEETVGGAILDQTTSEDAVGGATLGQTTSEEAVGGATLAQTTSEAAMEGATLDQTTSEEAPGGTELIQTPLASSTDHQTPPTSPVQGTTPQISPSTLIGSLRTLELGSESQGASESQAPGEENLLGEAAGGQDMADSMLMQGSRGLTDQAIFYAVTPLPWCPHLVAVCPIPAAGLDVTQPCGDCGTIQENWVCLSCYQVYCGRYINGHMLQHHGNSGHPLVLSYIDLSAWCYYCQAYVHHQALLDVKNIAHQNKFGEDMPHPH
# Description: (§1) The compounds were diluted to the indicated concentrations and mixed with HDAC enzymes (HDAC1, HDAC3, HDAC6, HDAC8, HDAC11) and the substrate for 1 h (PBS Biosciences). The fluorescence intensity was measured according to the manufacturer’s instructions.
# MDA-MB 231 cells = experiment: Antiproliferation, MDA-MB 231; type: cell-based; conditions: Homo sapiens, Breast
# PANC1 cells = experiment: Antiproliferation, PANC1; type: cell-based; conditions: Homo sapiens, PANC-1; Pancreas
# SW620 cells = experiment: Antiproliferation, SW620; type: cell-based; conditions: Homo sapiens, SW-620; Colon
# Hepa1c1c7 cells = experiment: Antiproliferation, Hepa1c1c7; type: cell-based; conditions: Hepa-1c1c7; Liver
# EMT 6 cells = experiment: Antiproliferation, EMT 6; type: cell-based; conditions: Mus musculus, EMT6; Breast
# HDAC4 = biological target: T2, HDAC4 (Homo sapiens, UniProt P56524); experiment: HDAC enzyme inhibition assay, HDAC4; type: biochemical; conditions: read-out: IC50 (µM) HDAC4 (Class IIa)
# T2 construct: purchased PBS Biosciences [sic]
# MCF-7 cells = experiment: Antiproliferative assay (CELLOMAX viability), MCF-7; type: cell-based, human; conditions: for IC50 / Emax: MCF-7, 48 h; for IC50: read-out: IC50 (µM), antiproliferative activity against MCF-7; for Emax: MCF7, highest concentration 250 µM, read-out: Imax (%)
# Description: The MCF-7 cell line was obtained from Korean Cell Line Bank (KCLB, Seoul, Korea). The cells were cultured in vitro in DMEM (Invitrogen, Paisley, UK) containing 10% fetal bovine serum (Gibco, Thermo Fisher Scientific, Waltham, MA, USA) and 1% penicillin. Cells were treated with different concentrations of compounds (1–15) in a 1:3 the highest concentration was 250 µM (before dilution) and further incubated for 48 hrs. […] We evaluated the antiproliferative activity of compound 8 against a variety of cells.
# The MCF-7 cell line was obtained from ATCC. The cells were cultured in vitro in DMEM (Invitrogen, Paisley, UK) containing 10% fetal bovine serum (Gibco, Thermo Fisher Scientific, Waltham, MA) and 1% penicillin. For cytotoxicity assays, MCF-7 cells were seeded into 96-well culture plates at […] in 0.1 mL of DMEM and incubated at 37 °C with 5% CO2 and 90% humidity. After 16 h, the cells were treated with drugs (250 μM, serially diluted up to three-fold) for 48 h. Cell viability was measured using the CELLOMAXTM Viability Assay kit (Precaregene Co., Seoul, Korea). UV absorption at 450 nm wavelength was measured using an Infinite M200 microplate reader (Tecan, Zürich, Switzerland). The IC50 values were calculated using Prism v7.0 (GraphPad Software Inc., La Jolla, CA). The inhibitory activity of the tested compounds was evaluated by an 8-point dose–response curve (DRC) analysis in triplicates.
# [1] = test system: acetylated tubulin (HDAC6 substrate) in MCF-7 cells; experiment: Western blot of acetylated tubulin in MCF-7; type: cell-based, human
# Description: (§2) MCF-7 and N2a cell lines were incubated with various concentrations of test agents for 6 h. Cell lysis and Western blot analyses were performed as previously described. Anti-acetylated tubulin antibody and horseradish peroxidase (HRP)-conjugated secondary antibodies (Santa Cruz Biotechnology) were used. Immunoreactive bands were visualized using enhanced chemiluminescence (Millipore, Burlington, MA, USA).
# (§3) GAPDH was used as a loading control.
# HDAC11 = biological target: T3, HDAC11 (Homo sapiens, UniProt Q96DB2); experiment: HDAC enzyme inhibition assay, HDAC11; type: biochemical
# T3 construct: purchased PBS Biosciences [sic]
# T3 sequence (Q96DB2 1-347): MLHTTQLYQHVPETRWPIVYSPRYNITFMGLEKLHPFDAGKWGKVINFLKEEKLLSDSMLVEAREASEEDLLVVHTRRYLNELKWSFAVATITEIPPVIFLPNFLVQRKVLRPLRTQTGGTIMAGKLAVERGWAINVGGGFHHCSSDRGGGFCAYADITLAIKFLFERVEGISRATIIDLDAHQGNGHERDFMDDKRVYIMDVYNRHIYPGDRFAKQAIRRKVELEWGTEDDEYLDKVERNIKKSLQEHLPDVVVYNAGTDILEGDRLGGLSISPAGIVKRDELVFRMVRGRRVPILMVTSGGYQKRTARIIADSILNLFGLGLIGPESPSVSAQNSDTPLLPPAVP
# Description: as §1
# HDAC3 = biological target: T4, HDAC3 (Homo sapiens, UniProt O15379); experiment: HDAC enzyme inhibition assay, HDAC3; type: biochemical; conditions: read-out: IC50 (µM) HDAC3 (Class I)
# T4 construct: purchased PBS Biosciences [sic]
# Description: as §1
# HDAC8 = biological target: T5, HDAC8 (Homo sapiens, UniProt Q9BY41); experiment: HDAC enzyme inhibition assay, HDAC8; type: biochemical; conditions: read-out: IC50 (µM) HDAC8 (Class I)
# T5 construct: purchased PBS Biosciences [sic]
# T5 sequence (Q9BY41 1-377): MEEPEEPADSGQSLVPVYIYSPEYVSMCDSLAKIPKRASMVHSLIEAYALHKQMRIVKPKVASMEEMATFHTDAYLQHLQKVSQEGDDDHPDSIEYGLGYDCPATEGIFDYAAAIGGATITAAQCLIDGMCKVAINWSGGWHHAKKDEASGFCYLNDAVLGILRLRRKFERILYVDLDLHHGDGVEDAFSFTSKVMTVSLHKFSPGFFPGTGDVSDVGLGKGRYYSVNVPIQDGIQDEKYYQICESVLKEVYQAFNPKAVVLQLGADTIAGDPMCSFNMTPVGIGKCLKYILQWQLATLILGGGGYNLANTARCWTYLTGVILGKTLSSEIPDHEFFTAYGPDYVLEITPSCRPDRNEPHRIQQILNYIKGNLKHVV
# Description: as §1
# [2] = test system: acetylated tubulin (HDAC6 substrate) in N2a cells; experiment: Western blot of acetylated tubulin in N2a; type: cell-based; conditions: 6 h, 10, 2, and 0.2 µM
# Description: as §2, §3
# T2 sequence (P56524 whole entry): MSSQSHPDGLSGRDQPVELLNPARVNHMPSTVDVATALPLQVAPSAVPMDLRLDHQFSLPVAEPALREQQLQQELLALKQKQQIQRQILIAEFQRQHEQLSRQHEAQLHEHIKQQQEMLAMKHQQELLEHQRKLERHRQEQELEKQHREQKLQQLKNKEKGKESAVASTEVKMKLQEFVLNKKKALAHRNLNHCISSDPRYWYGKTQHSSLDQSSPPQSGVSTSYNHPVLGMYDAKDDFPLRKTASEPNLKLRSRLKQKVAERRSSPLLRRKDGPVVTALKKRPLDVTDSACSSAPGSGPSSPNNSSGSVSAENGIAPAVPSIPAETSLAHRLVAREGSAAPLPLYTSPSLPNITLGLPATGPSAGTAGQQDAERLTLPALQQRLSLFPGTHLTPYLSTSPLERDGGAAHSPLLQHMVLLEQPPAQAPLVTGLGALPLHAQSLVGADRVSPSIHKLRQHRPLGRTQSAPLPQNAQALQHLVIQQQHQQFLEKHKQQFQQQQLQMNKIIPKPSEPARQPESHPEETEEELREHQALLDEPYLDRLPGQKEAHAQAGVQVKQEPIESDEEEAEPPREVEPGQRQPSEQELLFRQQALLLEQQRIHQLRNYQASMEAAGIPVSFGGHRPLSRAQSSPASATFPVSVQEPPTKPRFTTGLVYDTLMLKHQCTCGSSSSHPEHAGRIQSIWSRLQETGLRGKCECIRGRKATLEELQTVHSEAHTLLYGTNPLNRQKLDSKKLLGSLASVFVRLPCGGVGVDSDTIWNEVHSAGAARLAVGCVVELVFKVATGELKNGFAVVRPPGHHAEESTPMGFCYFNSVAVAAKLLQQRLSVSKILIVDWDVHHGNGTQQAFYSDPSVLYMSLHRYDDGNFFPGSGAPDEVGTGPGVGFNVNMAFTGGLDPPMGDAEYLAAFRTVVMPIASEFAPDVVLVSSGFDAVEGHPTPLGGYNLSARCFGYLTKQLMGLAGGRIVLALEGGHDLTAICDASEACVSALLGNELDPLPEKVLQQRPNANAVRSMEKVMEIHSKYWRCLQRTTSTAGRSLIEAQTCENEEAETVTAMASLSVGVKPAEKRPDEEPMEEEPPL
# T4 sequence (O15379 whole entry): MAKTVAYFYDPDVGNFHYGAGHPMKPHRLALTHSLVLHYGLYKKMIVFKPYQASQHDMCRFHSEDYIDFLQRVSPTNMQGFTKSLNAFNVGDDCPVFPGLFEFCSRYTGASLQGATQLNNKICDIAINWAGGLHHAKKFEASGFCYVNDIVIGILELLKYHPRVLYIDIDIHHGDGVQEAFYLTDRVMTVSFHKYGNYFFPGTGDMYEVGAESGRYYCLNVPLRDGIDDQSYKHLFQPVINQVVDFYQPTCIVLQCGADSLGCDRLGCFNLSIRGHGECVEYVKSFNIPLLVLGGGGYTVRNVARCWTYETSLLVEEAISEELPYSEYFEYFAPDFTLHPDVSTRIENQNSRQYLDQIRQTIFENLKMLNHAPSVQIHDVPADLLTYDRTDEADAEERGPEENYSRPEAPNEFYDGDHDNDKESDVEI
# T4 sequence (Q9Y618 395-489 partner limits assumed): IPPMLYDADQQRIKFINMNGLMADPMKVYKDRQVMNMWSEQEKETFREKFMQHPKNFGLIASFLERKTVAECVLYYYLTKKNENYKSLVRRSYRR
compound,measurement,setting,value
"O=C(/C=C/c1cccc(S(=O)(=O)Nc2ccccc2)c1)NO [Belinostat, reference compound]",IC50,N2A cells,3.66 ± 0.7 µM
same,IC50,SKOV3 cells,32.1 ± 5.5 µM
same,IC50,HDAC6; IC50 (µM) HDAC6 (Class IIb),0.2 ± 0.01 µM
same,IC50,MDA-MB 231 cells,3.72 ± 0.5 µM
same,IC50,PANC1 cells,15.7 ± 2.3 µM
same,IC50,SW620 cells,14.9 ± 1.2 µM
same,IC50,Hepa1c1c7 cells,10.1 ± 0.9 µM
same,IC50,EMT 6 cells,11.3 ± 2.6 µM
same,IC50,HDAC4,2.7 ± 0.12 µM
same,IC50,"MCF-7 cells; Homo sapiens, MCF7, 48 h",2.6 ± 1.4 µM
same,Emax,MCF-7 cells; Homo sapiens,100%
O=C(CSc1nc2ccccc2c(=O)n1Cc1ccccc1)NO [Compound 1],melting point,,188 to 191 °C
same,Emax,MCF-7 cells; Homo sapiens,20%
O=C(CSc1nc2ccccc2c(=O)n1Cc1ccc(F)cc1)NO [Compound 2],Emax,MCF-7 cells; Homo sapiens,11%
O=C(CSc1nc2ccccc2c(=O)n1Cc1cccc(F)c1)NO [Compound 3],melting point,,177 to 180 °C
same,Emax,MCF-7 cells; Homo sapiens,24%
O=C(CSc1nc2ccccc2c(=O)n1Cc1ccc(F)c(F)c1)NO [Compound 4],melting point,,184 to 186 °C
same,Emax,MCF-7 cells; Homo sapiens,23%
O=C(CSc1nc2ccccc2c(=O)n1Cc1ccccc1[N+](=O)[O-])NO [Compound 5],melting point,,176 to 179 °C
same,Emax,MCF-7 cells; Homo sapiens,17%
Cc1ccc(Cn2c(SCC(=O)NO)nc3ccccc3c2=O)cc1 [Compound 6],melting point,,184 to 186 °C
same,Emax,MCF-7 cells; Homo sapiens,22%
O=C(CCCCSc1nc2ccccc2c(=O)n1Cc1ccc(F)cc1)NO [Compound 8],IC50,N2A cells,3.2 ± 0.1 µM
same,IC50,SKOV3 cells,4.5 ± 0.1 µM
same,Selective Fold (Ratio) HDAC3/ HDAC6,HDAC6; ratio of IC50,7.9 fold and 7.94 fold
same,Selective Fold (Ratio) HDAC4/ HDAC6,HDAC6; ratio of IC50,>29.4 fold
same,Selective Fold (Ratio) HDAC8/ HDAC6,HDAC6; ratio of IC50,2.3 fold and 2.32 fold
same,Selective Fold (Ratio) HDAC11/ HDAC6,HDAC6; ratio of IC50,>29.4 fold
same,IC50,HDAC6; read-out: IC50 (µM) HDAC6 (Class IIb),2.3 µM and 0.3 µM
same,IC50,MDA-MB 231 cells,0.51 ± 0.02 µM
same,acetylation level of tubulin (Western blot) at 10 µM,"[1]; 10 µM, cell line not named",increased acetylation level of tubulin
same,acetylation of tubulin (Western blot),"[1]; MCF-7, 6 h, 10, 2, and 0.2 µM",induced acetylated tubulin levels in a dose-dependent manner
same,IC50,PANC1 cells,12.8 ± 0.75 µM
same,melting point,,138 to 140 °C
same,HDAC11 inhibition compared to Belinostat (in words),HDAC11; dose-dependent,higher activity against HDAC11 compared to the reference
same,IC50,HDAC11; read-out: IC50 (µM) HDAC11 (Class IV),~3 µM
same,IC50,SW620 cells,0.81 ± 0.01 µM
same,IC50,Hepa1c1c7 cells,1.3 ± 0.2 µM
same,IC50,EMT 6 cells,1.3 ± 0.3 µM
same,IC50,HDAC3,2.7 ± 0.08 µM
same,IC50,HDAC8,0.8 ± 0.01 µM
same,acetylation of tubulin (Western blot),[2],induced acetylated tubulin levels in a dose-dependent manner
same,IC50,HDAC4,> 10 µM
same,IC50,"MCF-7 cells; Homo sapiens, MCF7, 48 h",3.4 µM
same,Emax,MCF-7 cells; Homo sapiens,90.6%
same,IC50,MCF-7 cells,3.44 ± 1.11 µM
O=C(CCCCSc1nc2ccccc2c(=O)n1Cc1cccc(F)c1)NO [Compound 9],melting point,,145 to 147 °C
same,IC50,"MCF-7 cells; Homo sapiens, MCF7, 48 h",36.9 ± 1.12 µM
same,Emax,MCF-7 cells; Homo sapiens,96.8%
same,antiproliferative activity (in words),MCF-7 cells; MCF-7,loss of activity
O=C(CCCCSc1nc2ccccc2c(=O)n1Cc1ccc(-c2ccccc2)cc1)NO [Compound 10],melting point,,180 to 182 °C
same,IC50,"MCF-7 cells; Homo sapiens, MCF7, 48 h",14.2 ± 1.14 µM
same,Emax,MCF-7 cells; Homo sapiens,89.7%
O=C(CN1CCN(CCn2c(-c3ccc(F)cc3)nc3ccccc3c2=O)CC1)NO [Compound 11],melting point,,120 to 122 °C
COc1ccc(-c2nc3ccccc3c(=O)n2CCCCC(=O)NO)cc1 [Compound 13],melting point,,173 to 175 °C
same,IC50,"MCF-7 cells; Homo sapiens, MCF7, 48 h",37.3 ± 1.21 µM
same,Emax,MCF-7 cells; Homo sapiens,95.8%
O=C(CCCCn1c(-c2ccc(F)cc2)nc2ccccc2c1=O)NO [Compound 14],melting point,,156 to 158 °C
same,IC50,"MCF-7 cells; Homo sapiens, MCF7, 48 h",37.9 ± 1.71 µM
same,Emax,MCF-7 cells; Homo sapiens,100%
O=C(CCCCn1c(-c2ccco2)nc2ccccc2c1=O)NO [Compound 15],melting point,,195 to 197 °C
same,Emax,MCF-7 cells; Homo sapiens,1.5%
